# Columns and labels:
# SK-Br-3 cells = test: SK-Br-3 cell growth inhibition test (SRB assay); type: cell-based, human; conditions: 72 h
# Method: SK-Br-3 Cell Growth Inhibition Test (SRB Assay)
# (§1) II. Reagents and Consumable Materials
# Culture medium: 85% DMEM+15% FBS; pancreatin (0.25% (w/v) solution was formulated with PBS, 0.53 mM of EDTA was added in the formulation); PBS; 96-well culture plate.
# (§2) 1. A plate (10 cm) of cells in logarithmic growth phase that were normally cultured was collected;
# (§3) 2. The culture solution was sucked out. The plate was washed with 5 mL of PBS once or twice;
# (§4) 3. 1.5 mL of 0.25% pancreatin was added to the plate to infiltrate the cells;
# 4. The pancreatin was sucked out. The culture plate was placed in an incubator. Digestion was carried out for about 2 min at 37° C.;
# (§5) 5. 4 mL of complete culture solution was added to the culture plate to stop the digestion. The cells were carefully scoured with micropipette (1 mL) to give a uniform single cell suspension. The suspension was implanted into a 96-well cell culture plate by 10000 cells/100 μL per well. The culture plate was incubated overnight under 5% CO2 at 37° C. In day 2, 100 μL of culture solution comprising a compound was added in each well. The plate was further incubated for 72 h under 5% CO2 at 37° C.;
# (§6) 6. The culture solution was sucked out. 100 uL of TCA fixed cells which were diluted to 10% were added to each well. The plate was kept in a refrigerator for 1 h at 4° C.
# 7. TCA stationary liquid was sucked out. […]
# 13. OD values were determined at […]. […]
# NCI-446 cells = test: NCI-446 cell growth inhibition test (MTT assay); type: cell-based, human; conditions: 72 h
# Method: NCI-446 Cell Growth Inhibition Test (MTT Assay)
# II. Reagents and Consumable Materials Culture medium: 90% RPMI1640+10% FBS (fetal calf serum); Pancreatin (0.25% (w/v) solution was formulated with PBS, 0.53 mM of EDTA was added in the formulation); PBS; 96-well culture plate.
# as §2
# 2. The culture solution was sucked out. The plate was washed with 5 ml of PBS once or twice;
# (§7) 3. PBS was sucked out. 1.5 mL of 0.25% pancreatin was added to the plate to infiltrate the cells for 1 min;
# (§8) 4. The culture plate was placed in an incubator. Digestion was carried out for about 3 min at 37° C.;
# as §5, with “5. 3 mL of” for “5. 4 mL of”, “a uniform cell suspension.” for “a uniform single cell suspension.”, “cell culture disc by 4000” for “cell culture plate by 10000”, “disc by 4000 cells/100 μL” for “plate by 10000 cells/100 μL”
# (§9) 6. The culture solution was sucked out;
# (§10) 7. 100 μL of serum-free culture solution containing 0.5 mg/mL MTT was added in each well. The plate was incubated for 3 h;
# (§11) 8. The culture solution was carefully sucked out;
# 9. […]
# (§12) 10. OD values were determined at 490 nM. […]
# B16 cells = test: B16 cell growth inhibition test (MTT assay); type: cell-based, mouse; conditions: 72 h
# Method: B16 Cell Growth Inhibition Test (MTT Assay)
# as §1
# (§13) Culture medium: 90% RPMI1640+10% FBS (fetal calf serum); Pancreatin (0.25% (w/v) solution was formulated with PBS, 0.53 mM of EDTA was added in the formulation); PBS; 96-well culture plate.
# as §2, §3, §7
# (§14) 4. The culture plate was placed in an incubator. Digestion was carried out for about 1 min at 37° C.;
# as §5, with “5. 3 mL of” for “5. 4 mL of”, “a uniform cell suspension.” for “a uniform single cell suspension.”, “cell culture disc by 2500” for “cell culture plate by 10000”, “disc by 2500 cells/100 μL” for “plate by 10000 cells/100 μL”
# as §9
# 7. 100 μl of serum-free culture solution containing 0.5 mg/mL MTT was added in each well. The plate was incubated for 3 h;
# as §11
# (§15) 9. 100 μL of DMSO was added in each well and vibrated to dissolve;
# (§16) 10. OD values were determined at 490 nM.
# (§17) IV. Results and Treatments
# (§18) 1. Calculation of Relative Inhibition Ratio The inhibition ratio of a compound on cell growth=(PC−n)/(PC−NC)×100%
# (§19) PC: OD values of cells after normal growth in control wells without a compound;
# (§20) n: OD values of cells after growth in test wells with a compound;
# (§21) NC: Background OD values of blank wells without a compound and cells.
# NCI-H460 cells = test: NCI-H460 cell growth inhibition test (MTT assay); type: cell-based, human; conditions: NCI-460 cells (NCI-H460 in method), 72 h
# Method: NCI-H460 Cell Growth Inhibition Test (MTT Assay)
# as §1, §13, §2, §3, §7, §8
# as §5, with “5. 3 mL of” for “5. 4 mL of”, “a uniform cell suspension.” for “a uniform single cell suspension.”, “cell culture disc by 2000” for “cell culture plate by 10000”, “disc by 2000 cells/100 μL” for “plate by 10000 cells/100 μL”
# as §9, §10, §11
# 9. […]
# as §12
# A375 cells = test: A375 cell growth inhibition test (MTT assay); type: cell-based, human; conditions: 72 h
# Method: A375 Cell Growth Inhibition Test (MTT Assay)
# as §1
# Culture medium: 90% DMEM+10% FBS (fetal calf serum); Pancreatin (0.25% (w/v) solution was formulated with PBS, 0.53 mM of EDTA was added in the formulation); PBS; 96-well culture plate.
# as §2, §3, §7
# (§22) 4. The culture plate was placed in an incubator. Digestion was carried out for about 5 min at 37° C.;
# (§23) 5. 3 mL of complete culture solution was added to the culture plate to stop the digestion. The cells were carefully scoured with micropipette (1 ml) to give a uniform cell suspension. The suspension was implanted into a 96-well cell culture disc by 3000 cells/100 μL per well. The culture plate was incubated overnight under 5% CO2 at 37° C. In day 2, 100 μL of culture solution comprising a compound was added in each well. The plate was further incubated for 72 h under 5% CO2 at 37° C.;
# as §9, §10, §11, §15, §16, §17, §18, §19, §20, §21
# DU-145 cells = test: DU-145 cell growth inhibition test (MTT assay); type: cell-based; conditions: 72 h
# Method: DU-145 Cell Growth Inhibition Test (MTT Assay)
# as §1
# Culture medium: 90% EMEM+10% FBS (fetal calf serum); Pancreatin (0.25% (w/v) solution was formulated with PBS, 0.53 mM of EDTA was added in the formulation); PBS; 96-well culture plate.
# as §2, §3, §7, §14
# as §23, with “mL)” for “ml)”, “4000” for “3000”
# as §9, §10, §11, §15, §16, §17, §18, §19, §20, §21
# MCF-7 cells = test: MCF-7 cell growth inhibition test (SRB assay); type: cell-based, human; conditions: 73 h
# Method: MCF-7 Cell Growth Inhibition Test (SRB Assay)
# as §1
# Culture medium: 90% EMEM+10% FBS; Pancreatin (0.25% (w/v) solution was formulated with PBS, 0.53 mM of EDTA was added in the formulation); PBS; 96-well culture plate.
# as §2, §3, §4
# (§24) 4. The pancreatin was sucked out. The culture plate was placed in an incubator. Digestion was carried out for about 3 min at 37° C.;
# as §5, with “73” for “72”
# as §6
# (§25) 7. TCA stationary liquid was sucked out. Each well was washed with 150 μL of ddH2O five times;
# (§26) 8. After the stationary liquid was cleansed, the plate was dried in the air at the room temperature;
# (§27) 9. 60 μL of SRB staining solution was added in each well. The well was stained for 15 min at the room temperature;
# (§28) 10. The SRB staining solution was sucked out. Each well was washed with 150 μL of 1% glacial acetic acid five times;
# (§29) 11. After the SRB staining solution was cleansed, the plate was dried in the air at the room temperature;
# (§30) 12. 100 μL of 10 mM Tris was added in each well. The plate was vibrated to dissolve out SRB;
# (§31) 13. OD values were determined at 570 nM.
# as §17
# 1. Calculation of Relative Inhibition Ratio The inhibition ratio of a compound on cell growth=(PC−n)/(PC−NC)×100% […]
# A431 cells = test: A431 cell growth inhibition test (MTT assay); type: cell-based, human; conditions: 72 h
# Method: A431 Cell Growth Inhibition Test (MTT Assay)
# as §1
# Culture medium: 45% DMEM+45% F12+10% FBS (fetal calf serum); Pancreatin (0.25% (w/v) solution was formulated with PBS, 0.53 mM of EDTA was added in the formulation); PBS; 96-well culture plate.
# as §2, §3, §7, §22
# as §23, with “mL)” for “ml)”, “2500” for “3000”
# as §9, §10, §11, §15, §16, §17, §18, §19, §20, §21
# 786-O cells = test: 786-O cell growth inhibition test (MTT assay); type: cell-based, human; conditions: 72 h
# Method: 786-O Cell Growth Inhibition Test (MTT Assay)
# as §1, §13, §2, §3, §7, §14
# as §23, with “mL)” for “ml)”, “2000” for “3000”
# as §9, §10, §11, §15, §16, §17, §18, §19, §20, §21
# Hep3B cells = test: Hep3B cell growth inhibition test (SRB assay); type: cell-based; conditions: 72 h
# Method: Hep3B Cell Growth Inhibition Test (SRB Assay)
# as §1
# Culture medium: 90% RPMI-1640+10% FBS; Pancreatin (0.25% (w/v) solution was formulated with PBS, 0.53 mM of EDTA was added in the formulation); PBS; 96-well culture plate.
# as §2, §3, §4, §24
# as §5, with “5000” for “10000”
# as §6, §25, §26, §27, §28, §29, §30, §31, §17
# 1. Calculation of Relative Inhibition Ratio The inhibition ratio of the compound on cell growth=(PC−n)/(PC−NC)×100% […]
# [1] = Storage stability detected by HPLC; type: physicochemical; conditions: sealed and stored for 9 months under refrigeration conditions
# [2] = Solubility of the compound in water; type: physicochemical
smiles,measurement,setting,value
COCCOCCOCCOCCOCCOCCOCCOCCOCCNC(=O)CCC(=O)OCC(=O)C1(O)Cc2c(O)c3c(c(O)c2C(OC2CC(n4cccc4)C(O)C(C)O2)C1)C(=O)c1c(OC)cccc1C3=O (stereo not drawn) [Example 98],IC50,SK-Br-3 cells,15 nM
"COc1cccc2c1C(=O)c1c(O)c3c(c(O)c1C2=O)CC(O)(C(=O)COC(=O)CCC(=O)NCCN1CCOCC1)CC3O[C@H]1C[C@H](n2cccc2)[C@H](O)[C@H](C)O1 (stereo partly drawn) [Example 89, 10-((3′-(pyrrol-1-yl)-2′,3′,6′-trideoxy-alphal-l-lyxo-hexylpyranyl)oxy)-7,8,9,10-tetrahydro-6,8,11-trihydroxy-13-oxo-14-(4-((2-(morpholin-1-yl)ethyl)amino)-4-oxo-butyrato)-1-methoxy-5,12-naphthalenedione acetate]",IC50,NCI-446 cells,140 nM
same,IC50,B16 cells,3 nM
same,IC50,NCI-H460 cells,2.5 nM
same,IC50,A375 cells,48 nM
same,IC50,DU-145 cells,56 nM
same,IC50,MCF-7 cells,333 nM
same,IC50,A431 cells,46 nM
COc1cccc2c1C(=O)c1c(O)c3c(c(O)c1C2=O)CC(O)(C(=O)COC(=O)CCC(=O)NCCOCCOCCOCCOCCOCCOCCOCCO)CC3OC1CC(n2cccc2)C(O)C(C)O1 (stereo not drawn) [Example 90],IC50,786-O cells,90 nM
same,IC50,Hep3B cells,29 nM
same,IC50,DU-145 cells,30 nM
COc1cccc2c1C(=O)c1c(O)c3c(c(O)c1C2=O)CC(O)(C(=O)COC(=O)CCC(=O)NCCOCCOCCOCCOCCOCCOCCOCCOCCOCCOCCOCCO)CC3OC1CC(n2cccc2)C(O)C(C)O1 (stereo not drawn) [Example 92],IC50,Hep3B cells,28 nM
same,IC50,DU-145 cells,61 nM
"COc1cccc2c1C(=O)c1c(O)c3c(c(O)c1C2=O)CC(O)(C(=O)COC(=O)CCC(=O)NCCN1CCOCC1)CC3O[C@H]1C[C@H](n2cccc2)[C@H](O)[C@H](C)O1.O=P(O)(O)O (stereo partly drawn) [Example 96, 10-((3′-(pyrrol-1-yl)-2′,3′,6′-trideoxy-alphal-l-lyxo-hexylpyranyl)oxy)-7,8,9,10-tetrahydro-6,8,11-trihydroxy-13-oxo-14-(4-((2-(morpholin-1-yl)ethyl)amino)-4-oxo-butyrato)-1-methoxy-5,12-naphthalenedione phosphate]",stability on storage (degraded product by HPLC),[1],No obvious degraded product was observed
same,solubility of the compound in water,[2],more than 26 mg/ml
